{"source": "patent US20240181022A1", "about": "“AMURINS LYSINS, AND LYSIN-ANTIMICROBIAL PEPTIDE (AMP) CONSTRUCTS ACTIVE AGAINST GRAM-NEGATIVE BACTERIA” (priority 2021, published 2024)", "key": {"P. aeruginosa AR-769 [1]": {"system": "P. aeruginosa AR-769", "assay": "Repeat dose study of AM1 in the rabbit pulmonary infection model", "assay_type": "in vivo"}, "K. pneumoniae": {"system": "K. pneumoniae", "assay": "Checkerboard synergy assay (FICI) against K. pneumoniae", "assay_type": "cell-based, Klebsiella pneumoniae", "details": "K. pneumoniae HM-44", "experimental": "(§1) Any known method to assess MIC may be used.\n(§2) Checkerboards are constructed by first preparing columns of e.g., a 96-well polypropylene microtiter plate, wherein each well has the same amount of antibiotic diluted 2-fold along the horizontal axis. […] Bacteria are added to the drug combinations at concentrations of 1×10^5 […] in CAA, for example, with or without human serum or pulmonary surfactant. […] Summation fractional inhibitory concentrations (ΣFICs) are calculated for each drug and the minimum ΣFIC value (ΣFICmin) is used to determine the effect of the Chp peptide/antibiotic combination.\n(§3) GN370 was further tested in combination with up to seven additional antibiotics (in addition to meropenem) against a variety of bacterial strains, including P. aeruginosa, A. baumannii, E. coli, E. cloacae, and K. pneumoniae. GN370 and the subject antibiotics were tested in a checkerboard assay format, and FICI values were determined, wherein ≤0.5 indicates synergy, >0.5-≤1 indicates additive; and >1 indicates indifferent."}, "P. aeruginosa AR-769 [2]": {"system": "P. aeruginosa AR-769", "assay": "GN370 in the rabbit pneumonia model", "assay_type": "in vivo, New Zealand White rabbits", "details": "amikacin-alone or GN370-alone"}, "P. aeruginosa [3]": {"system": "P. aeruginosa"}, "E. coli": {"system": "E. coli", "assay": "Checkerboard synergy assay (FICI) against E. coli", "assay_type": "cell-based, Escherichia coli", "details": "E. coli ATCC 25922", "excerpt": "In some embodiments, the Chp peptides disclosed herein or active fragments thereof reduce the minimum inhibitory concentration (MIC) of an antibiotic in the presence and/or absence of human serum, pulmonary surfactant, and/or sputum, including human sputum and human sputum from a cystic fibrosis patient. Any known method to assess MIC may be used. In some embodiments, a checkerboard assay is used to determine the effect of a Chp peptide or active fragment thereof on antibiotic concentration. The checkerboard assay is based on a modification of the CLSI method for MIC determination by broth microdilution (See Clinical and Laboratory Standards Institute (CLSI), CLSI. 2015. Methods for Dilution Antimicrobial Susceptibility Tests for Bacteria That Grow Aerobically; Approved Standard-10th Edition. Clinical and Laboratory Standards Institute, Wayne, PA, which is herein incorporated by reference in its entirety and Ceri et al. 1999. J. Clin. Microbiol. 37: 1771-1776, which is also herein incorporated by reference in its entirety).\nCheckerboards are constructed by first preparing columns of e.g., a 96-well polypropylene microtiter plate, wherein each well has the same amount of antibiotic diluted 2-fold along the horizontal axis. […] The Chp peptide or active fragment thereof and antibiotic dilutions are then combined, so that each column has a constant amount of antibiotic and doubling dilutions of Chp peptide, while each row has a constant amount of Chp peptide and doubling dilutions of antibiotic. Each well thus has a unique combination of Chp peptide and antibiotic. Bacteria are added to the drug combinations at concentrations of 1×10^5 GFU/ml in CAA, for example, with or without human serum or pulmonary surfactant. […] Summation fractional inhibitory concentrations (ΣFICs) are calculated for each drug and the minimum ΣFIC value (ΣFICmin) is used to determine the effect of the Chp peptide/antibiotic combination.\nas §3"}, "E. cloacae": {"system": "E. cloacae", "assay": "Checkerboard synergy assay (FICI) against E. cloacae", "assay_type": "cell-based, Enterobacter cloacae", "details": "E. cloacae ATCC 13047", "experimental": "as §1, §2, §3"}, "A. baumannii": {"system": "A. baumannii", "assay": "Checkerboard synergy assay (FICI) against A. baumannii", "assay_type": "cell-based, Acinetobacter baumannii", "details": "A. baumannii ATCC BAA-747", "experimental": "as §1, §2, §3"}, "P. aeruginosa [4]": {"system": "P. aeruginosa", "assay": "Checkerboard synergy assay (FICI) with antibiotics against P. aeruginosa", "assay_type": "cell-based, Pseudomonas aeruginosa", "details": "for Antibiotic MIC (single agent): P. aeruginosa strain AR-769; for Antibiotic FIC / Antibiotic MIC (combo): P. aeruginosa strain AR-769, in combination with GN370; for Antibiotic MIC (combo): in µg/mL", "experimental": "as §1, §2\nThe synergy of GN370 with meropenem was evaluated against 3 different strains of P. aeruginosa and three different strains of B. cenocepacia.\nas §3"}, "P. aeruginosa [5]": {"system": "P. aeruginosa", "assay": "Serial passage resistance development study, P. aeruginosa", "assay_type": "cell-based, Pseudomonas aeruginosa", "details": "for MIC: Pseudomonas aeruginosa"}, "P. aeruginosa [6]": {"system": "P. aeruginosa", "details": "21 day serial passage, literature; cited from earlier work"}, "E. coli (ATCC 25922)": {"system": "E. coli (ATCC 25922)", "assay": "microbe, parasite or virus in culture", "assay_type": "cell-based, Escherichia coli"}, "[7]": {"system": "K. pneumoniae (1_1_5 HM-44)", "assay": "microbe, parasite or virus in culture", "assay_type": "cell-based, Klebsiella pneumoniae"}, "[8]": {"system": "A. baumannii (ATCC BAA-747)", "assay": "microbe, parasite or virus in culture", "assay_type": "cell-based, Acinetobacter baumannii"}, "E. cloacae (ATCC 13047)": {"system": "E. cloacae (ATCC 13047)", "assay": "microbe, parasite or virus in culture", "assay_type": "cell-based, Enterobacter cloacae"}, "S. maltophilia": {"system": "S. maltophilia", "assay": "Serial passage resistance development study, S. maltophilia", "assay_type": "cell-based, Stenotrophomonas maltophilia", "details": "for MIC: Stenotrophomonas maltophilia"}, "A. xylosoxidans": {"system": "A. xylosoxidans", "assay": "Serial passage resistance development study, A. xylosoxidans", "assay_type": "cell-based, Achromobacter xylosoxidans", "details": "for change in MIC over serial passage: A. xylosoxidans; for MIC: Achromobacter xylosoxidans"}, "[9]": {"details": "rabbit, amikacin 16 mg/kg i.v. every 8 hours (n = 17)"}, "[10]": {"details": "672 h, read-out: MIC after 28-day serial passage"}, "[11]": {"details": "read-out: MIC at start of serial passage"}}, "note": "Values joined by “and” are separate entries in the source; they are usually repeats but may differ in a detail not shown here. Equal values may be shown once. Read-outs that look alike come from different tables or passages of the source. Marks after values point to notes of the source that are not given here."}
{"smiles": "NCC[C@H](O)C(=O)N[C@@H]1C[C@H](N)[C@@H](O[C@H]2O[C@H](CN)[C@@H](O)[C@H](O)[C@H]2O)[C@H](O)[C@H]1O[C@H]1O[C@H](CO)[C@@H](O)[C@H](N)[C@H]1O", "note": "[amikacin, reference compound]", "values": [{"measurement": "mean bacterial density in lungs compared to the vehicle control group", "setting": "P. aeruginosa AR-769 [1]; agent alone, intravenous, treatment from 6 hours post-infection", "result": "moderate to no CFU/g reduction"}, {"measurement": "Log CFU change v. pre-treatment (at 6 hours)", "setting": "P. aeruginosa AR-769 [1]; [9]", "result": "0.35* Log CFU"}, {"measurement": "Mean Bacterial Density in Lung ± SD", "setting": "P. aeruginosa AR-769 [1]; [9]", "result": "7.84 ± 1.06", "unit": "Log CFU/lung"}, {"measurement": "Survival", "setting": "P. aeruginosa AR-769 [1]; [9]", "result": 85, "unit": "%"}, {"measurement": "FICI of the antibiotic with GN370", "setting": "K. pneumoniae", "result": 0.375}, {"measurement": "decrease of mean bacterial densities in lungs vs vehicle controls", "setting": "P. aeruginosa AR-769 [2]", "result": 1.3, "unit": "log10 CFU/g"}, {"measurement": "MIC", "setting": "P. aeruginosa [3]; XDR P. aeruginosa strain AR-769", "result": 8, "unit": "µg/mL"}, {"measurement": "FICI of the antibiotic with GN370", "setting": "E. coli", "result": 0.25}, {"measurement": "FICI of the antibiotic with GN370", "setting": "E. cloacae", "result": 0.75}, {"measurement": "FICI of the antibiotic with GN370", "setting": "A. baumannii", "result": 0.625}, {"measurement": "FICI of the antibiotic with GN370", "setting": "P. aeruginosa [4]; P. aeruginosa ATCC 27853, checkerboard", "result": 0.375}, {"measurement": "Antibiotic MIC (single agent)", "setting": "P. aeruginosa [4]", "result": 0.5, "unit": "µg/mL"}, {"measurement": "Antibiotic FIC", "setting": "P. aeruginosa [4]", "result": 0.25}, {"measurement": "Antibiotic MIC (combo)", "setting": "P. aeruginosa [4]", "result": 0.125}]}
{"smiles": "O=C(O)c1cn(C2CC2)c2cc(N3CCNCC3)c(F)cc2c1=O", "note": "[ciprofloxacin, reference compound]", "values": [{"measurement": "FICI of the antibiotic with GN370", "setting": "K. pneumoniae", "result": 0.156}, {"measurement": "change in MIC over 28-day serial passage", "setting": "P. aeruginosa [5]; P. aeruginosa (PA453)", "result": "up to 512 fold"}, {"measurement": "change in MIC over serial passage", "setting": "P. aeruginosa [5]; P. aeruginosa strain CFS 1292, Day 28", "result": 256, "unit": "fold"}, {"measurement": "MIC", "setting": "P. aeruginosa [5]", "result": 2, "unit": "µg/mL"}, {"measurement": "MIC", "setting": "P. aeruginosa [5]; [10]", "result": 256, "unit": "µg/mL"}, {"measurement": "MIC", "setting": "P. aeruginosa [5]; [11]", "result": 1, "unit": "µg/mL"}, {"measurement": "increase of MIC over serial passage (D'Lima et al.)", "setting": "P. aeruginosa [6]", "result": "up to 32 fold"}, {"measurement": "Antibiotic MIC (single agent)", "setting": "P. aeruginosa [4]", "result": 8, "unit": "µg/mL"}, {"measurement": "Antibiotic FIC", "setting": "P. aeruginosa [4]", "result": 0.25}, {"measurement": "Antibiotic MIC (combo)", "setting": "P. aeruginosa [4]", "result": "2 and 1"}, {"measurement": "Antibiotic FIC", "setting": "P. aeruginosa [4]; listed as Ciprofloxacin", "result": 0.125}]}
{"smiles": "C[C@H]1COc2c(N3CCN(C)CC3)c(F)cc3c(=O)c(C(=O)O)cn1c23", "note": "[levofloxacin, reference compound]", "values": [{"measurement": "change in MIC over 28-day serial passage", "setting": "E. coli (ATCC 25922); E. coli (ATCC 25922)", "result": 128, "unit": "fold"}, {"measurement": "MIC", "setting": "E. coli (ATCC 25922); Escherichia coli, ATCC25922", "result": 0.0312, "unit": "µg/mL"}, {"measurement": "change in MIC over 28-day serial passage", "setting": "[7]; K. pneumoniae (1_1_5 HM-44)", "result": "up to 512 fold"}, {"measurement": "MIC", "setting": "[7]; Klebsiella pneumoniae", "result": 0.0312, "unit": "µg/mL"}, {"measurement": "change in MIC over 28-day serial passage", "setting": "[8]; A. baumannii (ATCC BAA-747)", "result": 128, "unit": "fold"}, {"measurement": "MIC", "setting": "[8]; Acinetobacter baumannii, ATCCBAA747", "result": 0.125, "unit": "µg/mL"}, {"measurement": "MIC", "setting": "P. aeruginosa [5]", "result": 4, "unit": "µg/mL"}, {"measurement": "change in MIC over 28-day serial passage", "setting": "E. cloacae (ATCC 13047); E. cloacae (ATCC 13047)", "result": 256, "unit": "fold"}, {"measurement": "MIC", "setting": "E. cloacae (ATCC 13047); Enterobacter cloacae, ATCC13047", "result": 0.0625, "unit": "µg/mL"}, {"measurement": "change in MIC over serial passage", "setting": "S. maltophilia; S. maltophilia, day 28, triplicate", "result": "up to 256 fold"}, {"measurement": "MIC", "setting": "S. maltophilia; [10]", "result": 64, "unit": "µg/mL"}, {"measurement": "MIC", "setting": "S. maltophilia; [11]", "result": 0.25, "unit": "µg/mL"}, {"measurement": "MIC", "setting": "P. aeruginosa [3]; […], before serial passage", "result": 1, "unit": "µg/mL"}, {"measurement": "change in MIC over serial passage", "setting": "A. xylosoxidans; day 28", "result": 128, "unit": "fold"}, {"measurement": "change in MIC over serial passage", "setting": "A. xylosoxidans; day 28, another instance", "result": 64, "unit": "fold"}, {"measurement": "MIC", "setting": "A. xylosoxidans; 672 h, read-out: MIC after 28-day serial passage, A. xylosoxidans", "result": 32, "unit": "µg/mL"}, {"measurement": "MIC", "setting": "A. xylosoxidans; 672 h, read-out: MIC after 28-day serial passage, A. xylosoxidans, another instance", "result": 128, "unit": "µg/mL"}, {"measurement": "MIC", "setting": "A. xylosoxidans; read-out: MIC at start of serial passage, A. xylosoxidans", "result": 0.25, "unit": "µg/mL"}, {"measurement": "MIC", "setting": "A. xylosoxidans; read-out: MIC at start of serial passage, A. xylosoxidans, another instance", "result": 2, "unit": "µg/mL"}]}
